The values below come from patent publication US8912200B2, “Alkynyl substituted pyrimidinyl-pyrroles active as kinases inhibitors” (Nerviano Medical Sciences S.R.L., priority 2011, dated 2014).

Test [1] concerns the target T1, JAK2 kinase domain (Homo sapiens, UniProt O60674).
T1 construct: commercially available JAK2 kinase domain; purchased Invitrogen, Eugene, Oreg
Put plainly: Biochemical assay for inhibitors of JAK kinase activity (JAK2, 33P-γ-ATP/dowex resin). The settings on record: JAK2 kinase domain 1 nM, 60 μM ATP. Summed up:
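Human JAK2 (1 nM) phosphorylated peptide BioDBn*306 (64 μM) with 60 μM ATP plus 3 nM 33P-γ-ATP in HEPES pH 7.5/MgCl2/DTT buffer, 60 min at room temperature. Unreacted ATP captured by Dowex resin; supernatant β-counted. IC50 from sigmoidal fit of ten-point 1:3 dilution curves.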

For test [2], the target named is T2, Lyn full length (Homo sapiens, UniProt P07948).
T2 construct: The assay has been performed using Lyn full length
Put plainly: Biochemical assay for inhibitors of Lyn (Src family) kinase activity. The settings on record: Lyn full length 1 nM, 25 μM ATP. From the text:
Biochemical Assay for Inhibitors of Lck and Lyn (Src Family) Kinases Activity
Specific Lck and Lyn substrates are trans-phosphorylated by Lck and Lyn kinases in the presence of ATP traced with 33P-γ-ATP. At the end of the phosphorylation reaction, the unreacted ATP, cold and radioactive, is captured by an excess of dowex ion exchange resin that eventually settles by gravity to the bottom of the reaction plate. The supernatant is subsequently withdrawn and transferred into a counting plate that is then evaluated by β-counting.
Lyn Specific Assay Conditions
The assay has been performed using Lyn full length (accession number P07948 of UniProtKB/Swiss-Prot database).
Kinase buffer was composed of 50 mM HEPES pH 7.5 containing 3 mM MgCl2, 1 mM DTT, 3 μM Na3VO4, and 0.2 mg/mL BSA.
The Lyn kinase assay was run with a final enzyme concentration of 1 nM, in the presence of 25 μM ATP, 1.5 nM 33P-γ-ATP and 250 μM of substrate ABI 1 (Aminoacid sequence: EAIYAAPFAKKK—SEQ ID NO: 3). The peptidic substrate was purchased from American Peptide Company (Sunnyvale, Calif.).
For IC50 determination, test compounds are received as a 1 mM solution in 100% DMSO, distributed into 96 well plates: compounds are then plated into the first column of a microtiter plate (A1 to G1), 100 μL/well.
An automated station for serial dilutions (Biomek FX, Beckman) is used for producing 1:3 dilutions in 100% DMSO, from line A1 to A10, and for all the compounds in the column. Moreover, 4-5 copies of daughter plates are prepared by reformatting 5 μL of this first set of 100% DMSO dilution plates into 384 deep well-plates: one of these plates with the serial dilutions of test compounds will be thawed the day of the experiments, reconstituted at a 3× concentration with water and used in the IC50 determination assays. In a standard experiment, the highest concentration (3×) of all compounds is 30 μM, while the lowest one is 1.5 nM. Each 384 well-plate will contain at least one curve of the standard inhibitor staurosporine and reference wells (total enzyme activity vs. no enzymatic activity) for the Z′ and signal to background evaluation.
384-well plates, V bottom (test plates) are prepared with 5 μL of the compound dilution (3×) and then placed onto a PlateTrak 12 robotized station (Perkin Elmer; the robot has one 384-tip pipetting head for starting the assay plus one 96-tip head for dispensing the resin) together with one reservoir for the Enzyme mix (3×) and one for the ATP mix (3×). At the start of the run, the robot aspirates 5 μL of ATP mix, makes an air gap inside the tips (3 μl) and aspirates 5 μL of JAK2 mix. The following dispensation into the plates plus 3 cycles of mixing, done by the robot itself, starts the kinase reaction. At this point, the correct concentrations are restored for all the reagents. The robot incubates the plates for 60 minutes at room temperature, and then stops the reaction by pipetting 60 μL of dowex resin suspension into the reaction mix. In order to avoid tip clogging, wide bore tips are used to dispense the resin suspension. Three cycles of mixing are done immediately after the addition of the resin. Another mixing cycle is performed after all the plates are stopped, this time using normal tips: the plates are then allowed to rest for about one hour in order to allow resin sedimentation. At this point, 27 μL of the supernatant are transferred into 384-Optiplates (Perkin-Elmer), with 50 μL of Microscint 40 (Perkin-Elmer); after 5 min of orbital shaking the plates are read on a Perkin-Elmer Top Count radioactivity counter.
Data are analyzed by an internally customized version of the SW package “Assay Explorer” that provides sigmoidal fitting of the ten-dilutions curves for IC50 determination in the secondary assays/hit confirmation routines.

The test system of test [3] is JAK2 dependent human megakaryoblastic leukemia cell line SET-2. Kind of test: Cell proliferation assay (CellTiter-Glo, 72 hours). The settings on record: Homo sapiens, SET-2 cells. Type of test: cell-based. Summed up:
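About 5×10^3 SET-2 cells per well, in RPMI-1640 with 10% FBS, were exposed to inhibitor dilutions for 72 hours at 37 °C, 5% CO2. Viability read by CellTiter-Glo luminescence. IC50 from sigmoidal fitting of 8-point dilution curves.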
(In general: Cellular ATP, detected with luciferase, serves as a proxy for viable cell number.)

T1 sequence (O60674 849-1124 limits assumed): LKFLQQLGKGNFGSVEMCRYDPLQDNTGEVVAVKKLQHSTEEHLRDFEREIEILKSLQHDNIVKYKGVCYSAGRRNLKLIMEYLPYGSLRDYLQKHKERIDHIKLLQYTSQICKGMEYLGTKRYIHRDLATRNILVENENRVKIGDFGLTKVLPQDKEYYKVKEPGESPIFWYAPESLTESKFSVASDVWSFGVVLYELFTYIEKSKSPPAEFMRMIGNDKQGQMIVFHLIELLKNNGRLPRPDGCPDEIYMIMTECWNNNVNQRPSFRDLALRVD
T2 sequence (P07948 whole entry): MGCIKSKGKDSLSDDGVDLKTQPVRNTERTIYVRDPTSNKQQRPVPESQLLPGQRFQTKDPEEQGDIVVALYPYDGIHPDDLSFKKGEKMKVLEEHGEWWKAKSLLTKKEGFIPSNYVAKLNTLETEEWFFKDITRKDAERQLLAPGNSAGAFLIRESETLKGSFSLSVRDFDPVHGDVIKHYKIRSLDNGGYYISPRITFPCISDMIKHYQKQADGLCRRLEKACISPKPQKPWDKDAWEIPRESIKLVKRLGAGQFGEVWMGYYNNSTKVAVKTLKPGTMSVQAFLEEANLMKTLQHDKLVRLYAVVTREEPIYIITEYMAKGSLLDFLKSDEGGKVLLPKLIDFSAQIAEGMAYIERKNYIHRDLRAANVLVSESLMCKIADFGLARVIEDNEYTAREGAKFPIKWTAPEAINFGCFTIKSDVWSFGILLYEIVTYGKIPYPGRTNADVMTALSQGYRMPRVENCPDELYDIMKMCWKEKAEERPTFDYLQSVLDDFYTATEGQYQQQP

Take `Cc1ccc(Cl)cc1-c1[nH]c(-c2nc(N)ncc2C#Cc2ccc(CN3CCCCC3)cc2)cc1C(N)=O` [compound 67, 5-(2-Amino-5-{[4-(piperidin-1-ylmethyl)phenyl]ethynyl}pyrimidin-4-yl)-2-(5-chloro-2-methylphenyl)-1H-pyrrole-3-carboxamide]: the half-maximal inhibitory concentration (IC50) in test [1] stood at 1 nM; in test [2], 1 nM; in test [3], 190 nM.
As for `Cc1ccc(Cl)cc1-c1[nH]c(-c2ccnc(N)n2)c(C#Cc2ccccc2)c1C(N)=O` [compound 69, 5-(2-Amino-pyrimidin-4-yl)-2-(5-chloro-2-methyl-phenyl)-4-phenylethynyl-1H-pyrrole-3-carboxamide], the concentration for half-maximal inhibition (IC50) in test [1] worked out at 8 nM; in test [2], 20 nM; in test [3], 1450 nM.
With `Cc1ccc(Cl)cc1-c1[nH]c(-c2ccnc(N)n2)c(C#Cc2cccc(N)c2)c1C(N)=O` [compound 72, 4-[(3-Aminophenyl)ethynyl]-5-(2-aminopyrimidin-4-yl)-2-(5-chloro-2-methylphenyl)-1H-pyrrole-3-carboxamide], the values for the IC50 in test [1], in test [2] and in test [3] were 2 nM, 10 nM and 420 nM, respectively.
For the molecule `Cc1ccc(Cl)cc1-c1[nH]c(-c2ccnc(N)n2)c(C#Cc2ccc(N)cc2)c1C(N)=O` [compound 76, 4-[(4-Aminophenyl)ethynyl]-5-(2-amino-pyrimidin-4-yl)-2-(5-chloro-2-methyl-phenyl)-1H-pyrrole-3-carboxamide], the IC50 stood at 3 nM in test [1], 8 nM in test [2] and 500 nM in test [3].
In the case of `Cc1ccc(Cl)cc1-c1[nH]c(-c2ccnc(N)n2)c(C#Cc2cccc(CN3CCN(C)CC3)c2)c1C(N)=O` [compound 81, 5-(2-Aminopyrimidin-4-yl)-2-(5-chloro-2-methylphenyl)-4-({3-[(4-methylpiperazin-1-yl)methyl]phenyl}ethynyl)-1H-pyrrole-3-carboxamide], the IC50 in test [1] came to 6 nM; in test [2], 3 nM; in test [3] it was 540 nM.
With `Cc1ccc(Cl)cc1-c1[nH]c(-c2ccnc(N)n2)c(C#Cc2cccc(NCCN)c2)c1C(N)=O` [compound 82, 4-({3-[(2-Aminoethyl)amino]phenyl}ethynyl)-5-(2-aminopyrimidin-4-yl)-2-(5-chloro-2-methylphenyl)-1H-pyrrole-3-carboxamide], the IC50 in test [1] stood at 7 nM; in test [2] it was 11 nM; in test [3] it was 290 nM.
For `Cc1ccc(Cl)cc1-c1[nH]c(-c2ccnc(N)n2)c(C#Cc2ccc(N3CCN(C)CC3)cc2)c1C(N)=O` [compound 83, 5-(2-Aminopyrimidin-4-yl)-2-(5-chloro-2-methylphenyl)-4-{[4-(4-methylpiperazin-1-yl)phenyl]ethynyl}-1H-pyrrole-3-carboxamide] the same measures were 8 nM, 9 nM and 510 nM.
In the case of `COc1ccc(N2CCN(C)CC2)cc1C#Cc1c(-c2ccnc(N)n2)[nH]c(-c2cc(Cl)ccc2C)c1C(N)=O` [compound 86, 5-(2-Aminopyrimidin-4-yl)-2-(5-chloro-2-methylphenyl)-4-{[2-methoxy-5-(4-methylpiperazin-1-yl)phenyl]ethynyl}-1H-pyrrole-3-carboxamide], the IC50 in test [1] amounted to 1 nM; in test [2], 1 nM; in test [3] it was 210 nM.
For the molecule `Cc1ccc(Cl)cc1-c1[nH]c(-c2ccnc(N)n2)c(C#Cc2ccccc2NCCN(C)C)c1C(N)=O` [compound 87, 5-(2-Aminopyrimidin-4-yl)-2-(5-chloro-2-methylphenyl)-4-[(2-{[2-(dimethylamino)ethyl]amino}phenyl)ethynyl]-1H-pyrrole-3-carboxamide], the IC50 was 13 nM in test [1], 24 nM in test [2] and 290 nM in test [3].
For the molecule `COc1cc(N2CCN(C)CC2)ccc1C#Cc1c(-c2ccnc(N)n2)[nH]c(-c2cc(Cl)ccc2C)c1C(N)=O` [compound 89, 5-(2-Aminopyrimidin-4-yl)-2-(5-chloro-2-methylphenyl)-4-{[2-methoxy-4-(4-methylpiperazin-1-yl)phenyl]ethynyl}-1H-pyrrole-3-carboxamide], the IC50 in test [1] is 6 nM; in test [2], 4 nM; in test [3], 260 nM.
For `Cc1ccc(Cl)cc1-c1[nH]c(-c2ccnc(N)n2)c(C#Cc2cccc(N3CCN(C)CC3)c2)c1C(N)=O` [compound 90, 5-(2-Aminopyrimidin-4-yl)-2-(5-chloro-2-methylphenyl)-4-{[3-(4-methylpiperazin-1-yl)phenyl]ethynyl}-1H-pyrrole-3-carboxamide carboxamide], the IC50 was found to be 3 nM in test [1], 5 nM in test [2] and 300 nM in test [3].
In the case of `Cc1ccc(Cl)cc1-c1[nH]c(-c2ccnc(N)n2)c(C#Cc2cccc(OC3CCN(C)CC3)c2)c1C(N)=O` [compound 91, 5-(2-Aminopyrimidin-4-yl)-2-(5-chloro-2-methylphenyl)-4-({3-[(1-methylpiperidin-4-yl)oxy]phenyl}ethynyl)-1H-pyrrole-3-carboxamide], the values for the half-maximal inhibitory concentration (IC50) in test [1], in test [2] and in test [3] were 5 nM, 114 nM and 260 nM, respectively.
For `Cc1ccc(Cl)cc1-c1[nH]c(-c2ccnc(N)n2)c(C#Cc2ccc(OC3CCN(C)CC3)cc2)c1C(N)=O` [compound 92, 5-(2-Aminopyrimidin-4-yl)-2-(5-chloro-2-methylphenyl)-4-({4-[(1-methylpiperidin-4-yl)oxy]phenyl}ethynyl)-1H-pyrrole-3-carboxamide], the half-maximal inhibitory concentration (IC50) in test [1] was 5 nM; in test [2], 39 nM; in test [3] it was 220 nM.
For the molecule `Cc1ccc(Cl)cc1-c1[nH]c(-c2ccnc(N)n2)c(C#Cc2cc(N3CCN(C)CC3)ccc2F)c1C(N)=O` [compound 93, 5-(2-Aminopyrimidin-4-yl)-2-(5-chloro-2-methylphenyl)-4-{[2-fluoro-5-(4-methylpiperazin-1-yl)phenyl]ethynyl}-1H-pyrrole-3-carboxamide], the IC50 in test [1] worked out at 5 nM; in test [2], 93 nM; in test [3], 230 nM.
For `Cc1ccc(Cl)cc1-c1[nH]c(-c2ccnc(N)n2)c(C#Cc2ccccc2NC2CCN(C)CC2)c1C(N)=O` [compound 94, 5-(2-Aminopyrimidin-4-yl)-2-(5-chloro-2-methylphenyl)-4-({2-[(1-methylpiperidin-4-yl)amino]phenyl}ethynyl)-1H-pyrrole-3-carboxamide], the IC50 turned out to be 32 nM in test [1], 661 nM in test [2] and 290 nM in test [3].
`Cc1ccc(Cl)cc1-c1[nH]c(-c2ccnc(N)n2)c(C#Cc2ccc(N3CCC(N4CCN(C)CC4)CC3)cc2)c1C(N)=O` [compound 95, 5-(2-Aminopyrimidin-4-yl)-2-(5-chloro-2-methylphenyl)-4-({4-[4-(4-methylpiperazin-1-yl)piperidin-1-yl]phenyl}ethynyl)-1H-pyrrole-3-carboxamide]: the IC50 in test [1] was determined as 8 nM; in test [2], 281 nM; in test [3], 400 nM.

Usually IC50 stands for the point on the concentration scale where inhibition reaches its midpoint.
